Assay results reported in US20210122730A1, “GLUCOCORTICOID RECEPTOR MODULATORS” (ORIC Pharmaceuticals, Inc., priority 2017, published 2021).

These compounds were tested against T1, GR (Homo sapiens, UniProt P04150) (assay: In Vitro GR Luciferase Reporter Assay (antagonist mode, CHO-K1-GR-MMTV-Luc reporter cells)). Conditions: antagonist mode, 10 nM Dexamethasone.
T1 construct: expressed in transfected cells; host or cells: CHO-K1
T1 sequence (P04150 1-777): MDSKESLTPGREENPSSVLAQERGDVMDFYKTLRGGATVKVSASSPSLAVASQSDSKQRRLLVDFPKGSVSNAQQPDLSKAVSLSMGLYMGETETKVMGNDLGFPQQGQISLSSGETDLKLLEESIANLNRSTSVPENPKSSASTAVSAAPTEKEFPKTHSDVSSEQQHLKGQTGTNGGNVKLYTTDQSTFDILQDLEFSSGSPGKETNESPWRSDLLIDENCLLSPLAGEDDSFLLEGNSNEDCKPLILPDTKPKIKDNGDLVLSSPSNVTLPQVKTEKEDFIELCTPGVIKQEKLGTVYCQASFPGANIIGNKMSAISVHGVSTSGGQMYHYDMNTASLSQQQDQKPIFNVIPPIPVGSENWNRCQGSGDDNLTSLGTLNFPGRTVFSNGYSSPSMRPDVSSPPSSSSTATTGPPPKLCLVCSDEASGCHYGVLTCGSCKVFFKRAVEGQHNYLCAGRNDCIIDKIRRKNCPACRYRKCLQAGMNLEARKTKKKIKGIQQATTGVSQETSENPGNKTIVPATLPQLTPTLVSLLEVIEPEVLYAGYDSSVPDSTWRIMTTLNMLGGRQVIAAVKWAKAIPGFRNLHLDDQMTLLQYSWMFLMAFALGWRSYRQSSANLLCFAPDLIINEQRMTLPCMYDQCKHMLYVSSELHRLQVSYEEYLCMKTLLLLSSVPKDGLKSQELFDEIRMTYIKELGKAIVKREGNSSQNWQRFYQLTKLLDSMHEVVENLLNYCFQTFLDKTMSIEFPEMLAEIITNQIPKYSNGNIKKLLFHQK
Format: cell-based
In short: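 Antagonist mode: compounds (8 serial 1:5 dilutions) added to GR-MMTV-luciferase CHO-K1 reporter cells co-exposed to 10 nM dexamethasone final, in phenol red-free DMEM plus 10% CSS. After roughly 18-24 h at 37° C, OneGlo luminescence read and IC50 calculated.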

IC50, ≤ 0.1 µM:
CC(C)(O)CN([C@H]1CCC2=Cc3c(cnn3-c3ccc(F)cc3)C[C@]2(C(=O)c2cc(F)ccn2)C1)S(=O)(=O)c1ccc(Cl)nc1 [Example 304, 6-chloro-N-((4aS,6S)-1-(4-fluorophenyl)-4a-(4-fluoropicolinoyl)-4,4a,5,6,7,8-hexahydro-1H-benzo[f]indazol-6-yl)-N-(2-hydroxy-2-methylpropyl)pyridine-3-sulfonamide]
Cn1cc(S(=O)(=O)[C@H]2CCC3=Cc4c(cnn4-c4ccc(F)cc4)C[C@]3(C(=O)c3cc(F)ccn3)C2)cn1 [Example 314, ((4aS,6S)-1-(4-fluorophenyl)-6-((1-methyl-1H-pyrazol-4-yl)sulfonyl)-1,4,5,6,7,8-hexahydro-4aH-benzo[f]indazol-4a-yl)(4-fluoropyridin-2-yl)methanone]
Cn1cnc(S(=O)(=O)N(CC2CC2)[C@H]2CCC3=Cc4c(cnn4-c4ccc(F)cc4)C[C@]3(C(=O)c3cc(C(F)(F)F)ccn3)C2)n1 [Example 316, N-(cyclopropylmethyl)-N-((4aS,6S)-1-(4-fluorophenyl)-4a-(4-(trifluoromethyl)picolinoyl)-4,4a,5,6,7,8-hexahydro-1H-benzo[f]indazol-6-yl)-1-methyl-1H-1,2,4-triazole-3-sulfonamide]
Cn1cc(S(=O)(=O)[C@H]2CCC3=Cc4c(cnn4-c4ccc(F)cc4)C[C@]3(C(=O)c3cc(Cl)ccn3)C2)cn1 [Example 317, (4-chloropyridin-2-yl)((4aS,6S)-1-(4-fluorophenyl)-6-((1-methyl-1H-pyrazol-4-yl)sulfonyl)-1,4,5,6,7,8-hexahydro-4aH-benzo[f]indazol-4a-yl)methanone]
Cn1cc(S(=O)(=O)N(CC(F)(F)F)[C@H]2CCC3=Cc4c(cnn4-c4ccc(F)cc4)C[C@]3(C(=O)c3cc(C(F)(F)F)ccn3)C2)nn1 [Example 318, N-((4aS,6S)-1-(4-fluorophenyl)-4a-(4-(trifluoromethyl)picolinoyl)-4,4a,5,6,7,8-hexahydro-1H-benzo[f]indazol-6-yl)-1-methyl-N-(2,2,2-trifluoroethyl)-1H-1,2,3-triazole-4-sulfonamide]
CC(C)N([C@H]1CCC2=Cc3c(cnn3-c3ccc(F)cc3)C[C@]2(C(=O)c2cc(Cl)ccn2)C1)S(=O)(=O)c1ccc(Cl)nc1 [Example 323, 6-chloro-N-((4aS,6S)-4a-(4-chloropicolinoyl)-1-(4-fluorophenyl)-4,4a,5,6,7,8-hexahydro-1H-benzo[f]indazol-6-yl)-N-isopropylpyridine-3-sulfonamide]
Cc1nc(S(=O)(=O)N(C2CC2)[C@H]2CCC3=Cc4c(cnn4-c4ccc(F)cc4)C[C@]3(C(=O)c3ncc(C(F)(F)F)s3)C2)cn1C [Example 336, N-cyclopropyl-N-((4aS,6S)-1-(4-fluorophenyl)-4a-(5-(trifluoromethyl)thiazole-2-carbonyl)-4,4a,5,6,7,8-hexahydro-1H-benzo[f]indazol-6-yl)-1,2-dimethyl-1H-imidazole-4-sulfonamide]
Cn1cc(S(=O)(=O)CC2CCC3=Cc4c(cnn4-c4ccc(F)cc4)C[C@]3(C(=O)c3ccc(C(F)(F)F)cn3)C2)cn1 (stereo partly drawn) [Example 340, ((4aR)-1-(4-fluorophenyl)-6-(((1-methyl-1H-pyrazol-4-yl)sulfonyl)methyl)-1,4,5,6,7,8-hexahydro-4aH-benzo[f]indazol-4a-yl)(5-(trifluoromethyl)pyridin-2-yl)methanone]
C[C@]1(O)C[C@@H](N([C@H]2CCC3=Cc4c(cnn4-c4ccc(F)cc4)C[C@]3(C(=O)c3cc(F)ccn3)C2)S(=O)(=O)c2ccc(F)cc2)C1 [Example 343, 4-fluoro-N-((4aS,6S)-1-(4-fluorophenyl)-4a-(4-fluoropicolinoyl)-4,4a,5,6,7,8-hexahydro-1H-benzo[f]indazol-6-yl)-N-((1s,3R)-3-hydroxy-3-methylcyclobutyl)benzenesulfon-amide]
Cn1ccc(S(=O)(=O)N(CC(F)F)[C@H]2CCC3=Cc4c(cnn4-c4ccc(F)cc4)C[C@]3(C(=O)c3cc(Cl)ccn3)C2)n1 [Example 345, N-((4aS,6S)-4a-(4-chloropicolinoyl)-1-(4-fluorophenyl)-4,4a,5,6,7,8-hexahydro-1H-benzo[f]indazol-6-yl)-N-(2,2-difluoroethyl)-1-methyl-1H-pyrazole-3-sulfonamide]
O=C(c1cc(F)ccn1)[C@]12Cc3cnn(-c4ccc(F)cc4)c3C=C1CC[C@H](N(CC(F)F)S(=O)(=O)c1ccc(Cl)nc1)C2 [Example 351, 6-chloro-N-(2,2-difluoroethyl)-N-((4aS,6S)-1-(4-fluorophenyl)-4a-(4-fluoropicolinoyl)-4,4a,5,6,7,8-hexahydro-1H-benzo[f]indazol-6-yl)pyridine-3-sulfonamide]
O=C(c1cc(Cl)ccn1)[C@]12Cc3cnn(-c4ccc(F)cc4)c3C=C1CC[C@H](N(CC(F)F)S(=O)(=O)c1ccc(Cl)nc1)C2 [Example 352, 6-chloro-N-((4aS,6S)-4a-(4-chloropicolinoyl)-1-(4-fluorophenyl)-4,4a,5,6,7,8-hexahydro-1H-benzo[f]indazol-6-yl)-N-(2,2-difluoroethyl)pyridine-3-sulfonamide]
Cn1ccc(S(=O)(=O)CC2CCC3=Cc4c(cnn4-c4ccc(F)cc4)C[C@]3(C(=O)c3cc(C(F)(F)F)ccn3)C2)n1 (stereo partly drawn) [Example 353, ((4aR)-1-(4-fluorophenyl)-6-(((1-methyl-1H-pyrazol-3-yl)sulfonyl)methyl)-1,4,5,6,7,8-hexahydro-4aH-benzo[f]indazol-4a-yl)(4-(trifluoromethyl)pyridin-2-yl)methanone]
Cn1ccc(S(=O)(=O)CC2CCC3=Cc4c(cnn4-c4ccc(F)cc4)C[C@]3(C(=O)c3ccc(C(F)(F)F)cn3)C2)n1 (stereo partly drawn) [Example 360, ((4aR)-1-(4-fluorophenyl)-6-(((1-methyl-1H-pyrazol-3-yl)sulfonyl)methyl)-1,4,5,6,7,8-hexahydro-4aH-benzo[f]indazol-4a-yl)(5-(trifluoromethyl)pyridin-2-yl)methanone]
Cn1ccc(S(=O)(=O)CC2CCC3=Cc4c(cnn4-c4ccc(F)cc4)C[C@]3(C(=O)c3ncc(C(F)(F)F)s3)C2)n1 (stereo partly drawn) [Example 361, ((4aR)-1-(4-fluorophenyl)-6-(((1-methyl-1H-pyrazol-3-yl)sulfonyl)methyl)-1,4,5,6,7,8-hexahydro-4aH-benzo[f]indazol-4a-yl)(5-(trifluoromethyl)thiazol-2-yl)methanone]
Cn1ccc(S(=O)(=O)CC2CCC3=Cc4c(cnn4-c4ccc(F)cc4)C[C@]3(C(=O)c3cc(F)ccn3)C2)n1 (stereo partly drawn) [Example 362, ((4aR)-1-(4-fluorophenyl)-6-(((1-methyl-1H-pyrazol-3-yl)sulfonyl)methyl)-1,4,5,6,7,8-hexahydro-4aH-benzo[f]indazol-4a-yl)(4-fluoropyridin-2-yl)methanone]
Cn1ccc(S(=O)(=O)CC2CCC3=Cc4c(cnn4-c4ccc(F)cc4)C[C@]3(C(=O)c3cc(Cl)ccn3)C2)n1 (stereo partly drawn) [Example 364, (4-chloropyridin-2-yl)((4aR)-1-(4-fluorophenyl)-6-(((1-methyl-1H-pyrazol-3-yl)sulfonyl)methyl)-1,4,5,6,7,8-hexahydro-4aH-benzo[f]indazol-4a-yl)methanone]
Cn1cnc(S(=O)(=O)[C@H]2CCC3=Cc4c(cnn4-c4ccc(F)cc4)C[C@]3(C(=O)c3cc(C(F)(F)F)ccn3)C2)n1 [Example 365, ((4aS,6S)-1-(4-fluorophenyl)-6-((1-methyl-1H-1,2,4-triazol-3-yl)sulfonyl)-1,4,5,6,7,8-hexahydro-4aH-benzo[f]indazol-4a-yl)(4-(trifluoromethyl)pyridin-2-yl)methanone]
Cn1ccc(S(=O)(=O)N([C@H]2CCC3=Cc4c(cnn4-c4ccc(F)cc4)C[C@]3(C(=O)c3cc(C(F)(F)F)ccn3)C2)[C@H]2C[C@@](O)(C(F)(F)F)C2)n1 [Example 369, N-((4aS,6S)-1-(4-fluorophenyl)-4a-(4-(trifluoromethyl)picolinoyl)-4,4a,5,6,7,8-hexahydro-1H-benzo[f]indazol-6-yl)-N-((1r,3S)-3-hydroxy-3-(trifluoromethyl)cyclobutyl)-1-methyl-1H-pyrazole-3-sulfonamide]
O=C(c1cc(Cl)ccn1)[C@]12Cc3cnn(-c4ccc(F)cc4)c3C=C1CC[C@H](N(C1CC(F)(F)C1)S(=O)(=O)c1ccc(Cl)nc1)C2 [Example 370, 6-chloro-N-((4aS,6S)-4a-(4-chloropicolinoyl)-1-(4-fluorophenyl)-4,4a,5,6,7,8-hexahydro-1H-benzo[f]indazol-6-yl)-N-(3,3-difluorocyclobutyl)pyridine-3-sulfonamide]
